Measured values as given in US20260372305A1, “A METHOD FOR CONTROLLING WEEDS” (SYNGENTA CROP PROTECTION AG, priority 2022, published 2026).
Values joined by “and” are separate entries in the source; they are usually repeats but may differ in a detail not shown here. Identical values can stand only once.

Tests used:
[1] = system: Amaranthus tuberculatus, homozygous for the deletion of glycine at amino acid 210 in PPX2L (G210 deletion); assay: Postemergence control of Amaranthus tuberculatus with G210 deletion in PPX2L (Example 2); format: in vivo
[2] = system: Amaranthus tuberculatus with a mutation at amino acid 210; assay: Field trial: control of Amaranthus tuberculatus visually assessed as % weed control (Example 3); format: in vivo
Experimental: A field trial was carried out in a plot in Canada. The plot size per replicate was set to 10 m^2. Compound 1 and the standard product saflufenacil were applied to about 4 inch (about 10 cm) tall Amaranthus tuberculatus with a mutation at amino acid 210, using a water volume of 300 I/ha. The efficacy of the tested compounds was visually assessed 14 days after the application and expressed in % weed control, whereas ratings range from 100% being complete control and 0% representing weed populations/growth similar to what is observed in the untreated check. Only species present at a sufficient density and consistency were assessed for reliable ratings.

Row | SMILES | % Survival out of 14 repetitions ([1]; […], 0.5 g ai/ha^−1, postemergence, 14 days after application, Agridex 1% by volume) | % Survival out of 14 repetitions ([1]; […], 1 g ai/ha^−1, postemergence, 14 days after application, Agridex 1% by volume) | % Survival out of 14 repetitions ([1]; […], 2 g ai/ha^−1, postemergence, 14 days after application, Agridex 1% by volume) | % Survival out of 14 repetitions ([1]; […], 4 g ai/ha^−1, postemergence, 14 days after application, Agridex 1% by volume) | % Survival out of 14 repetitions ([1]; […], 8 g ai/ha^−1, postemergence, 14 days after application, Agridex 1% by volume) | % Survival out of 14 repetitions ([1]; […], 16 g ai/ha^−1, postemergence, 14 days after application, Agridex 1% by volume) | % Survival out of 14 repetitions ([1]; […], 32 g ai/ha^−1, postemergence, 14 days after application, Agridex 1% by volume) | % Survival out of 14 repetitions ([1]; […], 64 g ai/ha^−1, postemergence, 14 days after application, Agridex 1% by volume) | plant survival ([1]; at or beyond 32 g ai/ha) | control of PPO inhibitor herbicide resistant Amaranthus tuberculatus with a mutation at amino acid 210 compared with fomesafen ([1]; in vivo) | control of Amaranthus tuberculatus with a mutation at codon 210 compared to saflufenacil [2] | % Survival out of 14 repetitions ([1]; in vivo) | plant survival ([1]; in vivo)
1 | CCOC(=O)[C@]1(C)CC(c2cc(-n3c(=O)n(C)c(=S)n(C)c3=O)c(F)cc2Cl)=NO1 [compound 1, ethyl (5S)-3-[2-chloro-5-(3,5-dimethyl-2,6-dioxo-4-thioxo-1,3,5-triazinan-1-yl)-4-fluoro-phenyl]-5-methyl-4H-isoxazole-5-carboxylate] | 100% | 100% | 100% | 100% | 86% | 50% | 0% | 0% | no plants survived | superior control | equivalent, if not slightly improved control |  | 
2 | CS(=O)(=O)NC(=O)c1cc(Oc2ccc(C(F)(F)F)cc2Cl)ccc1[N+](=O)[O-] [fomesafen, reference compound] |  |  |  |  |  |  |  |  |  |  |  | 100% and 93% | significant plant survival
